Test results reported in ChEMBL document CHEMBL5126614 (ACS Med Chem Lett, 2022).

How the values were obtained:
[1] = target: Glucagon receptor (Homo sapiens, UniProt P47871); experiment: Agonist activity at human GCGR expressed in frozen cells assessed as increase in cAMP production measured after 1 hr by HitHunter luminescence assay; format: functional, cell-based
[2] = organism: Homo sapiens; experiment: Selectivity ratio of EC50 for human GCGR expressed in frozen cells to EC50 for human GLP1R expressed in frozen cells; format: cell-based
[3] = target: Glucagon-like peptide 1 receptor (Homo sapiens, UniProt P43220); experiment: Agonist activity at human GLP1R expressed in frozen cells assessed as increase in cAMP production measured after 1 hr by HitHunter luminescence assay; format: functional, cell-based
Glucagon-like peptide 1 receptor, sequence (P43220 whole entry): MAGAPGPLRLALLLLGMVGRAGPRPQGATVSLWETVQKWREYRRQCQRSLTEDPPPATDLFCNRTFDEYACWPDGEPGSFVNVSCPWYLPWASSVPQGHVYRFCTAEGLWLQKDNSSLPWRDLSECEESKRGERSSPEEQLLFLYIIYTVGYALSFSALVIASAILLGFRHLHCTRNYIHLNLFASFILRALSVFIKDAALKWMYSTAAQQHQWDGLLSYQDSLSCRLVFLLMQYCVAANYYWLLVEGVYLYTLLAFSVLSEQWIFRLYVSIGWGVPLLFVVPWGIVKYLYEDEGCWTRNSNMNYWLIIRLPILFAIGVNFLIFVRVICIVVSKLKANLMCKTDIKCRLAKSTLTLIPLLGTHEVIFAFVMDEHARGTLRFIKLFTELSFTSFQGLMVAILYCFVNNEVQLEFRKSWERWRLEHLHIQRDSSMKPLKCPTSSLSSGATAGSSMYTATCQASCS

[4] = organism: Macaca mulatta; experiment: Selectivity ratio of EC50 for rhesus monkey GCGR to EC50 for rhesus monkey GLP1R
[5] = Agonist activity at rhesus monkey GLP1R; set-up: species or system Macaca mulatta
[6] = Agonist activity at rhesus monkey GCGR; set-up: species or system Macaca mulatta

Glucagon receptor, sequence (P47871 whole entry): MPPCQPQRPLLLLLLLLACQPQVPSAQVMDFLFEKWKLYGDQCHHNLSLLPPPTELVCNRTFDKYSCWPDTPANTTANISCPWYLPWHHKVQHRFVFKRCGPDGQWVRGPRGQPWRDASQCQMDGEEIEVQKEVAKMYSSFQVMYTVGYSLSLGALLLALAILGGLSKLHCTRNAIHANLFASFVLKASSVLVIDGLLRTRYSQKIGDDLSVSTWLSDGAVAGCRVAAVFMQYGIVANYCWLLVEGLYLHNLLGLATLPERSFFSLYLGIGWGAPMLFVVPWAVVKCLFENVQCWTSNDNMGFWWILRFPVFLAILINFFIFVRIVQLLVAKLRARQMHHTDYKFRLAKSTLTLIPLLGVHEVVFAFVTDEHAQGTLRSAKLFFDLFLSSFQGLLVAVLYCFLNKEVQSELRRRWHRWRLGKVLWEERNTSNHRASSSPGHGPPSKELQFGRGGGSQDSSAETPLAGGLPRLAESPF

Molecule | EC50 [1] [nM] | EC50 [3] [nM] | Ratio EC50 [4] | EC50 [5] [nM] | EC50 [6] [nM] | Ratio EC50 [2]
CCCCCCCCCCCCCCCC(=O)N[C@@H](CCC(=O)N[C@@H](CCC(=O)NCCCC[C@H](NC(=O)[C@H](CC(=O)O)NC(=O)[C@H](CO)NC(=O)[C@@H](NC(=O)[C@H](Cc1ccccc1)NC(=O)[C@@H](NC(=O)CNC(=O)[C@H](CCC(N)=O)NC(=O)[C@@H](CO)NC(=O)[C@@H](N)Cc1cnc[nH]1)[C@@H](C)O)[C@@H](C)O)C(=O)N[C@@H](CO)C(=O)N[C@@H](CCCCN)C(=O)N[C@@H](Cc1ccc(O)cc1)C(=O)N[C@@H](CC(C)C)C(=O)N[C@@H](CC(=O)O)C(=O)NC(C)(C)C(=O)N[C@@H](CCCNC(=N)N)C(=O)N[C@@H](C)C(=O)N[C@@H](C)C(=O)N[C@@H](CCC(N)=O)C(=O)N[C@@H](CC(=O)O)C(=O)N[C@@H](Cc1ccccc1)C(=O)N[C@H](C(=O)N[C@@H](CCC(N)=O)C(=O)N[C@@H](Cc1c[nH]c2ccccc12)C(=O)N[C@@H](CC(C)C)C(=O)N[C@@H](CC(C)C)C(=O)N[C@@H](CC(=O)O)C(=O)N[C@H](C(N)=O)[C@@H](C)O)C(C)C)C(=O)O)C(=O)O | 0.073 | 0.074 | 0.5 | 0.019 | 0.01 | 1
GLUCAGON |  |  |  | 0.038 | 0.003 | 
CCCCCCCCCCCCCCCC(=O)N[C@@H](CCC(=O)N[C@@H](CCC(=O)NCCCC[C@H](NC(=O)[C@H](CC(=O)O)NC(=O)[C@H](CO)NC(=O)[C@@H](NC(=O)[C@H](Cc1ccccc1)NC(=O)[C@@H](NC(=O)CNC(=O)[C@H](CCC(N)=O)NC(=O)C(C)(C)NC(=O)[C@@H](N)Cc1cnc[nH]1)[C@@H](C)O)[C@@H](C)O)C(=O)N[C@@H](CO)C(=O)N[C@@H](CCCCN)C(=O)N[C@@H](Cc1ccc(O)cc1)C(=O)N[C@@H](CC(C)C)C(=O)N[C@@H](CC(=O)O)C(=O)NC(C)(C)C(=O)N[C@@H](CCCNC(=N)N)C(=O)N[C@@H](CCCNC(=N)N)C(=O)N[C@@H](C)C(=O)N[C@@H](CCC(N)=O)C(=O)N[C@@H](CC(=O)O)C(=O)N[C@@H](Cc1ccccc1)C(=O)N[C@H](C(=O)N[C@@H](CCC(N)=O)C(=O)N[C@@H](Cc1c[nH]c2ccccc12)C(=O)N[C@@H](CC(C)C)C(=O)N[C@@H](CCSC)C(=O)N[C@@H](CC(N)=O)C(=O)N[C@H](C(N)=O)[C@@H](C)O)C(C)C)C(=O)O)C(=O)O | 0.035 | 0.02 |  |  |  | 1.8
CCCCCCCCCCCCCCCC(=O)N[C@@H](CCC(=O)N[C@@H](CCC(=O)NCCCC[C@H](NC(=O)[C@H](CC(=O)O)NC(=O)[C@H](CO)NC(=O)[C@@H](NC(=O)[C@H](Cc1ccccc1)NC(=O)[C@@H](NC(=O)CNC(=O)[C@H](CCC(N)=O)NC(=O)[C@@H](CO)NC(=O)[C@@H](N)Cc1cnc[nH]1)[C@@H](C)O)[C@@H](C)O)C(=O)N[C@@H](CO)C(=O)N[C@@H](CCCCN)C(=O)N[C@@H](Cc1ccc(O)cc1)C(=O)N[C@@H](CC(C)C)C(=O)N[C@@H](CC(=O)O)C(=O)N[C@H](C(=O)N[C@@H](CCCNC(=N)N)C(=O)N[C@@H](C)C(=O)N[C@@H](C)C(=O)N[C@@H](CCC(N)=O)C(=O)N[C@@H](CC(=O)O)C(=O)N[C@@H](Cc1ccccc1)C(=O)N[C@H](C(=O)N[C@@H](CCC(N)=O)C(=O)N[C@@H](Cc1c[nH]c2ccccc12)C(=O)N[C@@H](CC(C)C)C(=O)N[C@@H](CC(C)C)C(=O)N[C@@H](CC(=O)O)C(=O)N[C@H](C(N)=O)[C@@H](C)O)C(C)C)C(C)C)C(=O)O)C(=O)O | 0.062 |  | 0.9 | 0.021 | 0.018 | 0.5
CCCCCCCCCCCCCCCC(=O)N[C@@H](CCC(=O)N[C@@H](CCC(=O)NCCCC[C@H](NC(=O)[C@H](CC(=O)O)NC(=O)[C@H](CO)NC(=O)[C@@H](NC(=O)[C@H](Cc1ccccc1)NC(=O)[C@@H](NC(=O)CNC(=O)[C@H](CCC(N)=O)NC(=O)C(C)(C)NC(=O)[C@@H](N)Cc1cnc[nH]1)[C@@H](C)O)[C@@H](C)O)C(=O)N[C@@H](CO)C(=O)N[C@@H](CCCCN)C(=O)N[C@@H](Cc1ccc(O)cc1)C(=O)N[C@@H](CC(C)C)C(=O)N[C@@H](CC(=O)O)C(=O)NC(C)(C)C(=O)N[C@@H](CCCNC(=N)N)C(=O)N[C@@H](CCCNC(=N)N)C(=O)N[C@@H](C)C(=O)N[C@@H](CCC(N)=O)C(=O)N[C@@H](CC(=O)O)C(=O)N[C@@H](Cc1ccccc1)C(=O)N[C@H](C(=O)N[C@@H](CCC(N)=O)C(=O)N[C@@H](Cc1c[nH]c2ccccc12)C(=O)N[C@@H](CC(C)C)C(=O)N[C@@H](CC(C)C)C(=O)N[C@@H](CC(N)=O)C(=O)N[C@H](C(=O)N[C@@H](CCCCNC(=O)CC[C@H](N)C(=O)O)C(N)=O)[C@@H](C)O)C(C)C)C(=O)O)C(=O)O | 0.006 | 0.005 |  |  |  | 1.2

The remaining molecules from weak to strong by EC50 [1], led by results:

EC50 [1] [nM] | EC50 [3] [nM] | Ratio EC50 [4] | EC50 [5] [nM] | EC50 [6] [nM] | Molecule | Ratio EC50 [2]
0.06 | 0.04 |  |  |  | CCCCCCCCCCCCCCCC(=O)N[C@@H](CCC(=O)N[C@@H](CCC(=O)NCCCC[C@H](NC(=O)[C@H](CC(=O)O)NC(=O)[C@H](CO)NC(=O)[C@@H](NC(=O)[C@H](Cc1ccccc1)NC(=O)[C@@H](NC(=O)CNC(=O)[C@H](CCC(N)=O)NC(=O)C(C)(C)NC(=O)[C@@H](N)Cc1cnc[nH]1)[C@@H](C)O)[C@@H](C)O)C(=O)N[C@@H](CO)C(=O)N[C@@H](CCCCN)C(=O)N[C@@H](Cc1ccc(O)cc1)C(=O)N[C@@H](CC(C)C)C(=O)N[C@@H](CC(=O)O)C(=O)NC(C)(C)C(=O)N[C@@H](CCCNC(=N)N)C(=O)N[C@@H](CCCNC(=N)N)C(=O)N[C@@H](C)C(=O)N[C@@H](CCC(N)=O)C(=O)N[C@@H](CC(=O)O)C(=O)N[C@@H](Cc1ccccc1)C(=O)N[C@H](C(=O)N[C@@H](CCC(N)=O)C(=O)N[C@@H](Cc1c[nH]c2ccccc12)C(=O)N[C@@H](CC(C)C)C(=O)N[C@@H](CCSC)C(=O)N[C@@H](CC(N)=O)C(=O)N[C@H](C(=O)N[C@@H](CCCCNC(=O)CC[C@H](N)C(=O)O)C(N)=O)[C@@H](C)O)C(C)C)C(=O)O)C(=O)O | 1.5
0.039 | 0.034 | 2.6 | 0.009 | 0.022 | CCCCCCCCCCCCCCCC(=O)N[C@@H](CCC(=O)N[C@@H](CCC(=O)NCCCC[C@H](NC(=O)[C@H](CC(=O)O)NC(=O)[C@H](CO)NC(=O)[C@@H](NC(=O)[C@H](Cc1ccccc1)NC(=O)[C@@H](NC(=O)CNC(=O)[C@H](CCC(N)=O)NC(=O)C(C)(C)NC(=O)[C@@H](N)Cc1cnc[nH]1)[C@@H](C)O)[C@@H](C)O)C(=O)N[C@@H](CO)C(=O)N[C@@H](CCCCN)C(=O)N[C@@H](Cc1ccc(O)cc1)C(=O)N[C@@H](CC(C)C)C(=O)N[C@@H](CC(=O)O)C(=O)NC(C)(C)C(=O)N[C@@H](CCCNC(=N)N)C(=O)N[C@@H](C)C(=O)N[C@@H](C)C(=O)N[C@@H](CCC(N)=O)C(=O)N[C@@H](CC(=O)O)C(=O)N[C@@H](Cc1ccccc1)C(=O)N[C@H](C(=O)N[C@@H](CCC(N)=O)C(=O)N[C@@H](Cc1c[nH]c2ccccc12)C(=O)N[C@@H](CC(C)C)C(=O)N[C@@H](CC(C)C)C(=O)N[C@@H](CC(=O)O)C(=O)N[C@H](C(N)=O)[C@@H](C)O)C(C)C)C(=O)O)C(=O)O | 1.1
0.038 | 0.063 | 1 | 0.02 | 0.021 | CCCCCCCCCCCCCCCC(=O)N[C@@H](CCC(=O)N[C@@H](CCC(=O)NCCCC[C@H](NC(=O)[C@H](CC(=O)O)NC(=O)[C@H](CO)NC(=O)[C@@H](NC(=O)[C@H](Cc1ccccc1)NC(=O)[C@@H](NC(=O)CNC(=O)[C@H](CCC(N)=O)NC(=O)[C@@H](CO)NC(=O)[C@@H](N)Cc1cnc[nH]1)[C@@H](C)O)[C@@H](C)O)C(=O)N[C@@H](CO)C(=O)N[C@@H](CCCCN)C(=O)N[C@@H](Cc1ccc(O)cc1)C(=O)N[C@@H](CC(C)C)C(=O)N[C@@H](CC(=O)O)C(=O)N[C@@H](CO)C(=O)N[C@@H](CCCNC(=N)N)C(=O)N[C@@H](C)C(=O)N[C@@H](C)C(=O)N[C@@H](CCC(N)=O)C(=O)N[C@@H](CC(=O)O)C(=O)N[C@@H](Cc1ccccc1)C(=O)N[C@H](C(=O)N[C@@H](CCC(N)=O)C(=O)N[C@@H](Cc1c[nH]c2ccccc12)C(=O)N[C@@H](CC(C)C)C(=O)N[C@@H](CC(C)C)C(=O)N[C@@H](CC(=O)O)C(=O)N[C@H](C(N)=O)[C@@H](C)O)C(C)C)C(=O)O)C(=O)O | 0.6
0.017 | 0.013 | 0.5 | 0.015 | 0.008 | CCCCCCCCCCCCCCCC(=O)N[C@@H](CCC(=O)N[C@@H](CCC(=O)NCCCC[C@H](NC(=O)[C@H](CC(=O)O)NC(=O)[C@H](CO)NC(=O)[C@@H](NC(=O)[C@H](Cc1ccccc1)NC(=O)[C@@H](NC(=O)CNC(=O)[C@H](CCC(N)=O)NC(=O)[C@@H](CO)NC(=O)[C@@H](N)Cc1cnc[nH]1)[C@@H](C)O)[C@@H](C)O)C(=O)N[C@@H](CO)C(=O)N[C@@H](CCCCN)C(=O)N[C@@H](Cc1ccc(O)cc1)C(=O)N[C@@H](CC(C)C)C(=O)N[C@@H](CC(=O)O)C(=O)N[C@@H](CCC(=O)O)C(=O)N[C@@H](CCCNC(=N)N)C(=O)N[C@@H](C)C(=O)N[C@@H](C)C(=O)N[C@@H](CCC(N)=O)C(=O)N[C@@H](CC(=O)O)C(=O)N[C@@H](Cc1ccccc1)C(=O)N[C@H](C(=O)N[C@@H](CCC(N)=O)C(=O)N[C@@H](Cc1c[nH]c2ccccc12)C(=O)N[C@@H](CC(C)C)C(=O)N[C@@H](CC(C)C)C(=O)N[C@@H](CC(=O)O)C(=O)N[C@H](C(N)=O)[C@@H](C)O)C(C)C)C(=O)O)C(=O)O | 1.3
